# Assay results reported in patent US20240051992A1, “THIOPHOSPHOPEPTIDES FOR ULTRAFAST TARGETING OF THE GOLGI APPARATUS” (BRANDEIS UNIVERSITY, priority 2021, published 2024).
# Several values for one entry are separate records, joined by “and”; a condition that tells them apart may be missing. Equal entries are not always repeated. Where two headings read alike, the source gives them in different places.
# Tests used:
# [1] = Cytotoxicity against HEK293 cells; type: cell-based; details: human
# Method: (§1) Cell Lines: All cell lines used (HeLa, Saos-2, SJSA-1, OVSAHO, HCC1937, HepG2, OVCAR-4, SKOV-3, MCF-7, HEK293, HS-5) were purchased from the American Type Culture Collection (ATCC, Manassas, VA, USA). HeLa, HepG2, MCF-7 and HEK293 cells were cultured in MEM medium with 10% FBS and 1% P/S (100 U mL^−1 penicillin and 100 μg mL^−1 streptomycin, Invitrogen Life Technologies). Saos-2, SKOV-3 cells were cultured in McCoy's 5A medium with 15% FBS and 1% P/S. HS-5 cells were cultured in DMEM medium with 10% FBS and 1% P/S. SJSA-1, OVSAHO, HCC1937, OVCAR-4 cells were cultured in RPMI-1640 medium with 10% FBS and 1% P/S. All the cells were cultured at 37° C. in a humidified atmosphere of 5% CO2. To determine the cytotoxicity of the compounds, cells were seeded in 96-well cell plate at 1.0×10^4 cells/well for 24 h followed by culture medium removal, and then fresh culture medium containing compounds were added. For fluorescence imaging, cells were seeded in confocal dish at 1.5×10^5 cells/dish for 24 h followed by the addition of fresh medium containing compounds, and then the fluorescence of cells were taken by ZEISS LSM 880 confocal laser scanning microscope with the 63× oil lens.
# [2] = tested on: alkaline phosphatase (ALP)
# Method: Determination of Dephosphorylation Rates in vitro: To determine the dephosphorylation rates of thiophosphopeptides in vitro, pS1, pO1, pS2, pO2 solutions (PBS, pH 7.4) were prepared at concentration of 120 μM and ALP was added into the solutions to make the final concentration of ALP to 0.1 U/mL at 37° C. At the designated time, the same volume of methanol was added to eliminate the activity of ALP. LC/MS was used analyse the results.
# [3] = Cytotoxicity against HS-5 cells; type: cell-based; details: human
# Method: as §1
# [4] = Critical micelle concentration (CMC) determination by dynamic light scattering; type: physicochemical; details: thiophosphopeptide in deionized water, pH 7.4, DLS
# Method: Critical micelle concentration (CMC) determination: A series of solutions of compounds (pS1, pS2), from the concentration of 0.0625 μM to 400 μM, were prepared in deionized water and adjusted the pH to 7.4. The count rates of the solutions were measured and recorded by an ALV/DLS/SLS-5000 Light Scattering System, which were converted to the intensity of scattered light and then plotted against concentrations to determine the CMC values. Then, ALP (0.1 U/mL) was added to the series of solutions and after 24 h, the same procedures were proceeded to determine CMC values of dephosphorylated pS1 and pS2 (S1 and S2).
# Golgi of HeLa cells [5] = assay: Staining of pS2-treated HeLa cells with tetracysteine probe FlAsH-EDT2; type: cell-based; details: pS2 10 μM, 4 h; FlAsH-EDT2 1 μM, 1 h
# Method: Staining cells with FlAsH-EDT 2: Briefly, after incubating HeLa cell lines (1.5×10^5) in 3.5 cm confocal dish for 24 h at 37° C. in a humidified atmosphere of 5% CO2, we discarded the medium and added fresh medium containing pS2 (10 μM) and incubated them together for 4 h. After 4 h, medium was removed followed by three-time wash by cell imaging buffer to eliminate FBS. Then, we added FlAsH-EDT2 solution (cell imaging buffer, 1 μM) into the confocal dish and incubated the HeLa cells at 37° C. for 1 h. Meanwhile, we prepared 1,2-Ethanedithiol (EDT) solution (cell imaging buffer, 250 μM) and after the one-hour incubation of HeLa cells with FlAsH-EDT2, FlAsH-EDT2 was discarded and EDT solution was added to the confocal dish to eliminate the unspecific binding of FlAsH-EDT2 for 10 min. Ten minutes later, EDT solution was removed and cells were washed with cell imaging buffer three times and the fluorescence images were taken by ZEISS LSM 880 confocal laser scanning microscope.
# HeLa cells = assay: Cytotoxicity against HeLa cells; type: cell-based; details: 24 h
# Method: as §1
# Golgi of HeLa cells [6] = assay: CLSM fluorescence imaging of Golgi accumulation in HeLa cells; details: for Golgi fluorescence: 4 minutes
# [7] = Transmission electron microscopy of pS1 with or without ALP; type: physicochemical; details: 5 μM, without ALP
# Method: Transmission Electron Microscopy Experiments: The 400 mesh copper grids coated with carbon film was glowing discharged and sample solutions (5 μL of each) was placed onto the grids. After 30 seconds, the sample solution was removed, and the grids were stained by uranyl acetate (2% v/v) and allowed to dry in air. TEM images were obtained with Morgagni 268 transmission electron microscope at the HV of 80 kV with filament of 2.
# SJSA-1 cells = assay: CLSM rate of fluorescence increase at Golgi, SJSA-1; type: cell-based; details: pS1 10 μM
# Method: as §1, with “lens. […]” for “lens.”
# OVSAHO cells = assay: CLSM rate of fluorescence increase at Golgi, OVSAHO; type: cell-based; details: pS1 10 μM
# Method: as §1, with “lens. […]” for “lens.”
# HepG2 cells = assay: CLSM rate of fluorescence increase at Golgi, HepG2; type: cell-based; details: pS1 10 μM
# Method: as §1, with “lens. […]” for “lens.”
# MCF7 cells = assay: CLSM rate of fluorescence increase at Golgi, MCF-7; type: cell-based; details: pS1 10 μM
# Method: as §1, with “lens. […]” for “lens.”
# OVCAR4 cells = assay: CLSM rate of fluorescence increase at Golgi, OVCAR-4; type: cell-based; details: pS1 10 μM
# Method: as §1, with “lens. […]” for “lens.”
# Saos-2 cells = assay: CLSM rate of fluorescence increase at Golgi, Saos-2; type: cell-based; details: pS1 10 μM
# Method: as §1, with “lens. […]” for “lens.”
# HCC1937 cells = assay: CLSM rate of fluorescence increase at Golgi, HCC1937; type: cell-based; details: pS1 10 μM
# Method: as §1, with “lens. […]” for “lens.”
# SKOV3 cells = assay: CLSM rate of fluorescence increase at Golgi, SKOV-3; type: cell-based; details: pS1 10 μM
# Method: as §1, with “lens. […]” for “lens.”
# HS-5 cells = assay: CLSM rate of fluorescence increase at Golgi, HS-5; type: cell-based; details: pS1 10 μM
# Method: as §1, with “lens. […]” for “lens.”
# HEK293 cells = assay: CLSM rate of fluorescence increase at Golgi, HEK293; type: cell-based; details: pS1 10 μM
# Method: as §1, with “lens. […]” for “lens.”
compound,measurement,setting,value
O=C(Cc1ccc2ccccc2c1)N[C@H](Cc1ccccc1)C(=O)N[C@H](Cc1ccccc1)C(=O)NCCSP(=O)(O)O [pS2],IC50 at 24 h,[1],> 100000 nM
same,"dephosphorylation by ALP (rate, in words)","[2]; 120 μM, ALP 0.1 U/mL, PBS pH 7.4, 37° C.",rapid dephosphorylation
same,conversion to dephosphorylated product,"[2]; ALP 0.1 U/mL, about 16 minutes",nearly fully converted
same,IC50 at 24 h,[3],> 100000 nM
same,critical micelle concentration (CMC),[4],9.5 µM
same,FlAsH-EDT2 staining of treated cells,Golgi of HeLa cells [5],fluorescent at the Golgi of the HeLa cells
same,selectivity against cancer cells (HeLa vs HEK293 and HS-5),HeLa cells; compared with S2,more selective than S2
same,IC50,HeLa cells; HeLa cells,2800 nM and ~3000 nM
same,inhibitory activity against HeLa cells relative to pO2,HeLa cells; HeLa cells,an order of magnitude higher than that of pO2
same,"rescue of HeLa cells by cell death inhibitors (Z-VAD-FMK, NAc, Nec-1, DFO, Fer-1, disulfiram)",HeLa cells; pS2 10 μM,unable to rescue
"NBD-(β-Ala-f-f-NH—(CH2)2-phosphate [pO1, reference compound]","dephosphorylation by ALP (rate, in words)",[2]; pH 7.4,taking longer time for dephosphorylation than that of pS1
same,fluorescence in cells,"Golgi of HeLa cells [6]; 10 μM, 8 minutes",almost no fluorescence
same,fluorescence in cells,"Golgi of HeLa cells [6]; 100, 50, 20 μM, 4 hours",several scattered fluorescent puncta in cells
same,cellular uptake and localisation,Golgi of HeLa cells [6]; HeLa cells,requires hours for cellular uptake and largely remains in endosomes
NBD-(β-Ala-f-f-NH—(CH2)2-thiophosphate [pS1],assemblies seen by TEM,[7],micelles
same,fluorescence intensity increase at the Golgi,SJSA-1 cells,increase significantly
same,fluorescence intensity increase at the Golgi,OVSAHO cells,increase significantly
same,fluorescence intensity increase at the Golgi,HepG2 cells,slightly
same,fluorescence intensity increase at the Golgi,MCF7 cells,much slowly
same,fluorescence intensity increase at the Golgi,OVCAR4 cells,slightly
same,fluorescence intensity increase at the Golgi,Saos-2 cells,increase significantly
same,"dephosphorylation by ALP (rate, in words)",[2]; pH 7.4,fast dephosphorylation
same,fluorescence intensity increase at the Golgi,HCC1937 cells,increase significantly
same,time until distinctive fluorescence appears at the Golgi,Golgi of HeLa cells [6]; 500 nM,15 min
same,Golgi fluorescence,Golgi of HeLa cells [6]; 2 μM,much weaker fluorescence at the Golgi
same,Golgi fluorescence,Golgi of HeLa cells [6]; 5 μM,"green fluorescence clearly still presents at the Golgi, but little at the ER"
same,enhancement of fluorescence intensity at the Golgi from 1 minute to 8 minutes,Golgi of HeLa cells [6]; 10 μM,about 7 times
same,onset of fluorescence after addition,"Golgi of HeLa cells [6]; 10 μM, 0 min",appears almost instantly
same,Golgi fluorescence,Golgi of HeLa cells [6]; 10 μM,bright green fluorescence presents in Golgi and weak fluorescence in ER
same,colocalisation of fluorescence with CellLight Golgi-RFP,"Golgi of HeLa cells [6]; 10 μM, 8 minutes",overlaps with the red fluorescence from all Golgi-RFP
same,cell morphology in DIC image,"Golgi of HeLa cells [6]; 10 μM, 20 min",well-spread HeLa cells
same,concentration as low as which S1 accumulates at Golgi,Golgi of HeLa cells [6]; HeLa cells treated with pS1,500 nM
same,fluorescence at Golgi of pretreated cells in fresh culture medium (exocytosis),"Golgi of HeLa cells [6]; HeLa pretreated with pS1, fresh medium",drops only slightly over time
same,rate of Golgi accumulation when protein disulfide isomerases (PDIs) are inhibited,Golgi of HeLa cells [6]; PDI inhibition,slight decrease of the rate of Golgi accumulation
same,accumulation at Golgi after cytochalasin D (CytD),"Golgi of HeLa cells [6]; pS1 10 μM, CytD 0.5, 1.0 μg/mL, 30 min pretreatment",decreases the accumulation of S1 at Golgi in a concentration-dependent manner
same,rate of fluorescence increase at Golgi after ALP inhibitor DQB,"Golgi of HeLa cells [6]; pS1 10 μM, DQB 20 μM, 30 min pretreatment",reduce the rate of fluorescence increase at the Golgi
same,accumulation at Golgi with N-ethylmaleimide (NEM),"Golgi of HeLa cells [6]; pS1 10 μM, NEM 5 mM, 16 min",almost completely eliminates the accumulation of S1 at Golgi
same,rate of fluorescence increase at Golgi after phosphatase inhibitor cocktail set 3 (PIC),"Golgi of HeLa cells [6]; pS1 10 μM, PIC 4000×, 30 min pretreatment",reduce the rate of fluorescence increase at the Golgi
same,rate of fluorescence increase at Golgi after phospholipase C (PLC),"Golgi of HeLa cells [6]; pS1 10 μM, PLC 0.2 U, 30 min pretreatment",slightly faster increase of fluorescence in the Golgi
same,rate of fluorescence increase at Golgi after methyl-β-cyclodextrin (mβCD),"Golgi of HeLa cells [6]; pS1 10 μM, mβCD 5 mM, 30 min pretreatment",significantly decreases the rate of the fluorescence increase at the Golgi
same,accumulation at Golgi with Golgi disruptor brefeldin A (BFA),Golgi of HeLa cells [6]; with BFA,abolishes the accumulation
same,critical micelle concentration (CMC),[4],6.0 µM
same,fluorescence intensity increase at the Golgi,SKOV3 cells,much slowly
same,fluorescence intensity increase at the Golgi,HS-5 cells,much slowly
same,fluorescence intensity increase at the Golgi,HEK293 cells,much slowly
